Source: PubChem BioAssay (NCI)
“And” between values parts separate entries of the source, which are not always exact repeats. Equal values may be shown once.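 All cell lines were grown in 96-well plates and treated with compound for 48 hours. Abbreviation: GI50, concentration required for 50% inhibition of growth. The concentration for full growth arrest is given as TGI.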

What was measured:
Test in all cases: NCI-60 cell line screen, 48 h
MCF7 breast = system: MCF7 breast
MDA-MB-435 = system: MDA-MB-435
PC-3 prostate = system: PC-3 prostate
BT-549 breast = system: BT-549 breast
DU-145 prostate = system: DU-145 prostate
DMS 273 small cell lung = system: DMS 273 small cell lung
LXFL 529 NSCLC = system: LXFL 529 NSCLC
M19-MEL melanoma = system: M19-MEL melanoma
KM20L2 colon = system: KM20L2 colon
SNB-78 CNS = system: SNB-78 CNS

COc1ccc(C(=CCC(C)C2CCC3[C@@H]4C(OC(C)=O)CC5CC(OC(C)=O)CC[C@]5(C)C4CC(OC(C)=O)[C@]23C)c2ccc(OC)cc2)cc1 (some centres not stated)
TGI (MCF7 breast): > 100 µM | TGI (MDA-MB-435): > 100 µM | TGI (PC-3 prostate): > 100 µM

O=c1[nH]c2ccccc2cc1-c1nnc(Cc2ccccc2)o1
GI50 (BT-549 breast): 2560 nM | TGI (BT-549 breast): 10.2 µM | GI50 (DU-145 prostate): 5.18 µM | TGI (DU-145 prostate): 18.5 µM | GI50 (MCF7 breast): 2410 nM | TGI (MCF7 breast): 12.9 µM | GI50 (MDA-MB-435): 3.51 µM | TGI (MDA-MB-435): 17.5 µM | GI50 (PC-3 prostate): 4.16 µM | TGI (PC-3 prostate): 70.6 µM

N=C(N)n1cc(/C=N/N=C(N)N)cn1
TGI (BT-549 breast): > 100 µM | TGI (DU-145 prostate): > 100 µM | TGI (MCF7 breast): > 100 µM | TGI (MDA-MB-435): > 100 µM | TGI (PC-3 prostate): > 100 µM

CC(=O)C1(C(=O)C(=[N+]=[N-])S(=O)(=O)c2ccccc2)CC1
TGI (BT-549 breast): > 100 µM | TGI (DU-145 prostate): > 100 µM | TGI (MCF7 breast): > 100 µM | TGI (MDA-MB-435): > 100 µM | TGI (PC-3 prostate): > 100 µM

OCC1OC(OC2(CO)OC(CO)C(O)C2O)C(O)C(O)C1O (configuration not stated)
GI50 (BT-549 breast): > 100000 nM | TGI (BT-549 breast): > 100 µM | GI50 (DU-145 prostate): > 100 µM | TGI (DU-145 prostate): > 100 µM | GI50 (MDA-MB-435): > 100 µM | TGI (MDA-MB-435): > 100 µM | GI50 (PC-3 prostate): > 100 µM | TGI (PC-3 prostate): > 100 µM

Nc1ncnc2c1c(-c1ccc(Oc3ccccc3)cc1)nn2CC1SSCC1O (configuration not stated)
GI50 (BT-549 breast): 7110 nM | TGI (BT-549 breast): 17.1 µM | GI50 (DU-145 prostate): 4.15 µM | TGI (DU-145 prostate): 9.01 µM | GI50 (MCF7 breast): 1440 nM | TGI (MCF7 breast): 7.85 µM | GI50 (MDA-MB-435): 0.121 µM | TGI (MDA-MB-435): 0.47 µM | GI50 (PC-3 prostate): 6.23 µM | TGI (PC-3 prostate): 14.9 µM

Nc1nc(-c2ccccc2)c(CC(=O)O)s1
TGI (BT-549 breast): > 100 µM | TGI (DU-145 prostate): > 100 µM | TGI (MCF7 breast): > 100 µM | TGI (MDA-MB-435): > 100 µM | TGI (PC-3 prostate): > 100 µM

O=C(CCCCN1CCN(CCCCC(=O)Nc2ccccc2C#C/C=C\C#Cc2ccccc2C(F)(F)F)CC1)Nc1ccccc1C#C/C=C\C#Cc1ccccc1C(F)(F)F
GI50 (BT-549 breast): 8940 nM | TGI (BT-549 breast): 17.4 µM | GI50 (DU-145 prostate): 17.4 µM | TGI (DU-145 prostate): > 50 µM | GI50 (MCF7 breast): 9970 nM | TGI (MCF7 breast): 23 µM | GI50 (MDA-MB-435): 11.7 µM | TGI (MDA-MB-435): 22 µM | GI50 (PC-3 prostate): 13.9 µM | TGI (PC-3 prostate): > 50 µM

O=C(O)c1ccccc1NCn1nc(-c2ccccc2O)oc1=S
GI50 (BT-549 breast): 73800 nM | TGI (BT-549 breast): > 100 µM | GI50 (MCF7 breast): 46700 nM | TGI (MCF7 breast): > 100 µM | GI50 (MDA-MB-435): > 100 µM | TGI (MDA-MB-435): > 100 µM | GI50 (PC-3 prostate): 43.6 µM | TGI (PC-3 prostate): > 100 µM

CCOC(=O)C(Cc1ccc(N=NN(C)C)cc1)NC(=O)CC1c2ccccc2-c2ccccc21 (configuration not stated)
TGI (DMS 273 small cell lung): > 100 µM | TGI (LXFL 529 NSCLC): > 100 µM | TGI (M19-MEL melanoma): > 100 µM

CCOC(=O)c1cn(C)c2c(OC)c3ccccc3c(OC)c2c1=O
GI50 (BT-549 breast): 43000 nM | TGI (BT-549 breast): > 100 µM | GI50 (DU-145 prostate): 63 µM | TGI (DU-145 prostate): > 100 µM | GI50 (MCF7 breast): 22900 nM | TGI (MCF7 breast): 47.8 µM | GI50 (MDA-MB-435): 15.9 µM | TGI (MDA-MB-435): 30 µM | GI50 (PC-3 prostate): 29 µM | TGI (PC-3 prostate): > 100 µM

CCc1ccc(Oc2c(-c3ccc(OCc4ccc(Cl)cc4)cc3O)nn(C)c2C(F)(F)F)cc1
GI50 (BT-549 breast): 1560 nM | TGI (BT-549 breast): 3.34 µM | GI50 (DU-145 prostate): 0.545 µM | TGI (DU-145 prostate): 2.27 µM | GI50 (MCF7 breast): 339 nM | TGI (MCF7 breast): 1.9 µM | GI50 (MDA-MB-435): 1.06 µM | TGI (MDA-MB-435): 2.25 µM | GI50 (PC-3 prostate): 0.358 µM | TGI (PC-3 prostate): 1.68 µM

O=C1c2cccc3c(N4CCOCC4)ccc(c23)C(=O)N1CCN1CCN(CCCCCN2CCN(CCN3C(=O)c4cccc5c(N6CCOCC6)ccc(c45)C3=O)CC2)CC1
GI50 (BT-549 breast): > 100000 nM | TGI (BT-549 breast): > 100 µM | GI50 (DU-145 prostate): > 100 µM | TGI (DU-145 prostate): > 100 µM | GI50 (MCF7 breast): 77600 nM | TGI (MCF7 breast): > 100 µM | GI50 (MDA-MB-435): > 100 µM | TGI (MDA-MB-435): > 100 µM | GI50 (PC-3 prostate): > 100 µM | TGI (PC-3 prostate): > 100 µM

COc1ccc(N(CC(=O)O)N=O)cc1
TGI (BT-549 breast): > 100 µM | TGI (DU-145 prostate): > 100 µM | TGI (MCF7 breast): > 100 µM | TGI (MDA-MB-435): > 100 µM | TGI (PC-3 prostate): > 100 µM

CO[C@H]1C(=O)[C@]2(C)[C@@H](OC)C[C@H]3OC[C@@]3(OC(C)=O)[C@H]2[C@H](OC(=O)c2ccccc2)[C@]2(O)C[C@H](OC(=O)[C@H](O)[C@@H](NC(=O)OC(C)(C)C)c3ccccc3)C(C)=C1C2(C)C
GI50 (BT-549 breast): < 10 nM | TGI (BT-549 breast): 26.8 µM | GI50 (DU-145 prostate): < 0.01 µM | TGI (DU-145 prostate): < 0.01 µM | GI50 (MCF7 breast): < 10 nM | TGI (MCF7 breast): 20.5 µM | GI50 (PC-3 prostate): < 0.01 µM | TGI (PC-3 prostate): > 77.8 µM

COc1ccc([C@@]23Oc4cc(OC)cc(OC)c4[C@]2(O)[C@H](O)[C@H](C(=O)N(C)C)[C@H]3c2ccccc2)cc1
GI50 (DU-145 prostate): 0.0135 µM | TGI (DU-145 prostate): 0.0635 µM and 0.0375 µM and 0.219 µM | TGI (MDA-MB-435): 0.0434 µM and 0.0188 µM and 0.15 µM | GI50 (PC-3 prostate): 0.0173 µM

CN(C)C1C(=O)C(C(N)=O)=C(O)C2(O)C(=O)C3=C(O)c4c(O)cccc4C(C)(O)C3CC12.[Cl][Sb]([Cl])[Cl] (configuration not stated)
GI50 (BT-549 breast): 2950 nM | TGI (BT-549 breast): 10.4 µM | GI50 (DU-145 prostate): 4.33 µM | TGI (DU-145 prostate): 14.9 µM | GI50 (MCF7 breast): 3550 nM | TGI (MCF7 breast): 13 µM | GI50 (MDA-MB-435): 2.91 µM | TGI (MDA-MB-435): 10.4 µM | GI50 (PC-3 prostate): 3.05 µM | TGI (PC-3 prostate): 9.92 µM

NC1=NC(c2ccccc2Cl)c2c(n[nH]c2N)N1 (configuration not stated)
GI50 (BT-549 breast): 27400 nM | TGI (BT-549 breast): > 100 µM | GI50 (DU-145 prostate): 61 µM | TGI (DU-145 prostate): > 100 µM | GI50 (MCF7 breast): 7090 nM | TGI (MCF7 breast): > 100 µM | GI50 (MDA-MB-435): 15 µM | TGI (MDA-MB-435): > 100 µM | GI50 (PC-3 prostate): 85.8 µM | TGI (PC-3 prostate): > 100 µM

O=C(CI)NC(=O)NC(=O)NCc1ccccc1
GI50 (BT-549 breast): 2800 nM | TGI (BT-549 breast): 8.17 µM | GI50 (MCF7 breast): 2280 nM | TGI (MCF7 breast): 8.59 µM | GI50 (MDA-MB-435): 3.15 µM | TGI (MDA-MB-435): 11.7 µM | GI50 (PC-3 prostate): 15.1 µM | TGI (PC-3 prostate): 30.7 µM

CC[n+]1c(-c2ccccc2)c2cc(N)ccc2c2ccc(N)cc21
GI50 (BT-549 breast): 831 nM | TGI (BT-549 breast): 3.01 µM and 3.87 µM | TGI (DMS 273 small cell lung): 10.7 µM | GI50 (DU-145 prostate): 2 µM | TGI (DU-145 prostate): 13.3 µM and 42 µM | TGI (KM20L2 colon): 25.9 µM | TGI (LXFL 529 NSCLC): 2.94 µM | TGI (M19-MEL melanoma): 10.5 µM | GI50 (MCF7 breast): 1070 nM | TGI (MCF7 breast): 12.9 µM and 15.3 µM | GI50 (MDA-MB-435): 1.11 µM | TGI (MDA-MB-435): 2.56 µM and 12.5 µM | GI50 (PC-3 prostate): 1.97 µM | TGI (PC-3 prostate): 17.5 µM and 26.5 µM

C/C(=C/CCC(C)[C@@H]1CC[C@]2(C)C3=C(CC[C@@]12C)[C@@]1(C)CCC(=O)C(C)(C)[C@@H]1CC3)C(=O)O (some centres not stated)
GI50 (BT-549 breast): 1170 nM | TGI (BT-549 breast): 2.45 µM | GI50 (DU-145 prostate): 1.2 µM | TGI (DU-145 prostate): 2.56 µM | GI50 (MCF7 breast): 1020 nM | TGI (MCF7 breast): 2.87 µM | GI50 (MDA-MB-435): 1.25 µM | TGI (MDA-MB-435): 2.74 µM | GI50 (PC-3 prostate): 1.12 µM | TGI (PC-3 prostate): 2.51 µM

COc1cc([C@@H]2c3cc4c(cc3[C@H](SC(=N)N)[C@H]3COC(=O)[C@H]23)OCO4)cc(OC)c1OC
GI50 (BT-549 breast): 2300 nM | GI50 (MCF7 breast): 58.6 nM | TGI (MCF7 breast): > 100 µM | GI50 (PC-3 prostate): 0.381 µM | TGI (PC-3 prostate): > 100 µM

COS(=O)c1cc(Cl)cc(Cl)c1OC(=O)CSSCC(=O)Oc1c(Cl)cc(Cl)cc1S(=O)OC (configuration not stated)
TGI (DMS 273 small cell lung): 32.7 µM | TGI (KM20L2 colon): 67.2 µM | TGI (LXFL 529 NSCLC): 47.6 µM | TGI (M19-MEL melanoma): 57.7 µM | TGI (SNB-78 CNS): 76.2 µM

COc1cccc(-c2cc(=O)c3cc(N4CCN(C)CC4)ccc3[nH]2)c1
GI50 (MCF7 breast): 3720 nM | TGI (MCF7 breast): > 100 µM | GI50 (MDA-MB-435): 0.16 µM | TGI (MDA-MB-435): 0.554 µM and 0.364 µM | GI50 (PC-3 prostate): 1.55 µM | TGI (PC-3 prostate): > 100 µM
